Ends that are not written are not given here.
How the values were obtained:
[1] = test system: mouse lungs; experiment: Intra-tracheal delivery of PTD5 streptavidin-Cy3 complexes into mouse lungs, two-photon microscopy; assay type: in vivo; conditions: 50 μl of 200 μM, three hours post-injection, FIG. 3
Protocol: To determine if the PTDs can facilitate protein uptake by mouse lungs, the PTD5 streptavidin-Cy3 complexes were delivered into mouse lungs intra-tracheally. The treated mice were sacrificed three hours post-delivery and tissue from the lungs was scanned by two-photon microscopy. 50 μl of 200 μM solution of the PTD-5-β-Cy3 was injected intra-tracheally into mouse lungs. Three hours post-injection, the mice were sacrificed, and the lungs were analyzed by two photon confocal microscopy for internalization. A control peptide (Con.P)-Cy3 was used as a control.

[2] = test system: human airway cells; experiment: Organelle distribution of PTD-5-avidin-β-gal, gradient ultracentrifugation and β-gal activity; assay type: cell-based; conditions: 37° C., purified organelles, FIG. 5
Protocol: To test the distribution of PTD5 facilitating uptake into human airway cells, the ability of PTD5 to deliver β-gal protein to a variety of cell organelles was examined by separation of organelles using gradient ultra-centrifugation. PTD-5-avidin-β-gal and a control peptide, (Con.P)-avidin-β-gal, were added to the media bathing the airway cell cultures and incubated at 37° C. Three hours post-addition of the complexes, the cells were washed extensively and collected for organelle isolation by gradient ultracentrifugation. The purified cell organelles were tested for β-gal activity using a Galacto-light kit (Tropix, Inc.).

[3] = biological target: T1, interaction of Hdj2 and ΔF508 CFTR (Homo sapiens, UniProt P31689); experiment: Co-immunoprecipitation of Hdj2 with CFTR in KK cell lysate treated with fusion protein; assay type: binding
T1 construct: endogenous in cells; host or cells: KK bronchial epithelial cell line (lysate)
Protocol: To test whether PTD-5 ΔF508NBD1-RD could inhibit interaction of Hdj2 and ΔF508 CFTR, KK cells, a bronchial epithelial cell line carrying the ΔF508 mutation, were lysed with a lysis buffer, the lysate was treated with PTD5-NBD1-ΔF-RD and equal amount lysates were used to perform immunoprecipitation (IP) using CFTR antibodies, M3A7 (1 μg) and L12B4 (1 μg) and protein […] beads. The precipitants were washed five times with lysis buffer. Hjd2 that co-precipitated with CFTR was fractionated by SDS-PAGE, transferred to PVDF membrane and detected by immunoblotting (IB).

[4] = test system: ΔF508 CFTR; experiment: Whole cell patch clamp of forskolin-stimulated currents; conditions: primary human airway (HBE) cells, four hours treatment, 5-10 μM forskolin, 37° C.
Protocol: To increase the specificity of the method, a whole cell patch clamp method can be utilized to verify the SPQ data using PTD-5 ΔF508 NBD1/RD. Briefly, cells at 50% confluence are treated with PTD fusion peptide or adenovirus carrying ΔF508 NBD1/RD for four hours and subjected to whole cell patch clamp by standard methods. Currents are recorded at −60 mV and current-voltage relations are obtained before and after the cells are stimulated with 5-10 μM forskolin; all procedures are performed at 37° C. The bath solution contained (in mM) 150 NaCl, 2 MgCl2, 1 EGTA, 5 HEPES and 0.5 CaCl2 (pH=7.3). The pipette solution contains (in mM) 150 NaCl, 2 MgCl2, 5 HEPES and 2 CaCl2 (pH=7.3). Data is amplified using an Axopatch 200A patch-clamp amplifier and recorded to disk by a Digidata A/D interface for later analysis with pCLAMP8. The data is low-pass filtered and digitized at 1 kHz.

[5] = test system: Calu3 cells and human bronchial epithelial cells (KK); experiment: PTD-5-facilitated delivery of streptavidin-Cy3, confocal microscopy; assay type: cell-based; conditions: three hours, 37° C., FIG. 2
Protocol: (§1) To determine whether the PTD5 polypeptide (RRQRRTSKLMKR) was able to facilitate uptake into different cell types including differentiated airway epithelial cells and Calu3 cells, the ability of PTD5 to deliver avidin-β-Gal and streptavidin Cy3 to human airway cells and Calu3 cells was examined.
PTD-5 was also coupled to streptavidin-Cy 3, which was added to Calu3 cell and human bronchial epthelial cells (KK) cultures at 37° C. (FIG. 2). A peptide (Con.P)-strepavdin-Cy3 was used as a control. Three hours post addition of the PTD-5-streptavidin-Cy 3, the intracellular localization of the red (Cy 3) fluorescent signals were visualized by confocal microscopy. The nuclei were counterstained using cytox green.

[6] = test system: primary human airway epithelial cells (HBE144), polarized canine kidney cells (MDCK) and other cell types; experiment: PTD-5-facilitated delivery of avidin-β-gal complex, X-gal staining; assay type: cell-based; conditions: 150 nM PTD-5-avidin-β-gal complex, three hours, FIG. 1
Protocol: as §1
PTD-5 is a positively charged transduction peptide, which was biotinylated so that it can be coupled to avidin marker complexes. 150 nM of the PTD-5-avidin-β-gal complex was added to the cell culture media of various cell lines (FIG. 1). Three hours post addition of the complex, the indicated cells were fixed and stained with X-gal.

| Substance | Cy3 signal in lungs [1] | delivery of avidin-β-gal complex to cell organelles (β-gal activity) [2] | interaction of Hdj2 with ΔF508 CFTR (co-immunoprecipitation) ([3]; listed as PTD5 ΔF508NBD1-RD fusion protein) | interaction of Hdj2 with ΔF508 CFTR (co-immunoprecipitation) ([3]; listed as PTD-5-ΔF508 NBD1-RD) | forskolin-stimulated whole cell currents [4] | delivery of streptavidin-Cy3 complex into cells (confocal microscopy) [5] | delivery of avidin-β-gal complex into cells (X-gal staining) [6] |
| --- | --- | --- | --- | --- | --- | --- | --- |
| ARPLEHGSDKAT (control, Con P) [reference compound] | weak signals | did not localize to any of the organelles | – | – | – | – | – |
| PTD5-ΔF508 NBD1/RD fusion protein: inline fusion of PTD-5 with the ΔF508 CFTR NBD1-RD region, histidine tag, expressed in E. coli, nickel column purified | – | – | capable of inhibiting the interaction of Hdj2 with the ΔF508 CFTR protein | disrupts ΔF508 CFTR interaction with chaperone Hdj2 | forskolin-stimulated currents typical of those associated with CFTR | – | – |
| RRQRRTSKLMKR (also: biotinylated (position not given here)) [PTD-5, biotinylated for coupling to avidin marker complexes] | significant Cy3 signal | able to deliver the avidin-β-gal complex to ER, Golgi, mitochondria, and nuclei | – | – | – | delivered the streptavidin-Cy3 complex | able to deliver the avidin-β-gal complex |

Source: patent publication US7264948B2, “Polypeptides for increasing mutant CFTR channel activity” (University of Pittsburgh, priority 2002, dated 2007)
